Laboratory results reported in patent US9861117B2 (priority 2009, dated 2018).
Read-outs that look alike come from different tables or passages of the source.

Experiments:
Clostridium perfringens [1] = assay type: cell-based
Clostridium perfringens [2] = assay type: in vivo; conditions: 0-42 day, infected broilers, 1000 ppm in feed
Clostridium perfringens [3] = assay type: in vivo, broilers; design: Clostridium perfringens counts in jejunum: unit not given here; conditions: 1000 ppm in feed; for Clostridium perfringens counts in jejunum: day 13 of age
[4] = Diarrhoea score of weaned piglets fed supplemented feed; conditions: 1000 ppm in feed; for Diarrhoea score: average over the total period
[5] = Recovery in duodenum, jejunum and ileum of broilers fed supplemented feed; assay type: in vivo; conditions: 1000 ppm in feed, day 43 of age, FIG. 3
From the text: Broilers were offered feed supplemented with 1000 ppm of either dodecanoic acid or ethyl dodecanoate throughout the trial. At day 43 of age, 12 birds per treatment were sacrificed and the content of the duodenum, jejunum and ileum was harvested and analysed for levels of ethyl dodecanoate and dodecanoic acid. In FIG. 3 the mean levels are depicted.

[6] = Example 1, FIG. 1, all tested levels, broth, 8 hours
[7] = Challenged broilers (10^8 CFU C. perfringens day 9-11)
[8] = Overall (challenged and non-challenged)

Row | SMILES | Inhibition of growth of Clostridium perfringens (OD) (Clostridium perfringens [1]; [6]) | Feed conversion ratio (Clostridium perfringens [2]) | Feed intake (Clostridium perfringens [2]) [g/day] | Mortality (Clostridium perfringens [2]) [%] | Weight gain (Clostridium perfringens [2]) [g/day] | Inhibition of growth of Clostridium perfringens (OD) (Clostridium perfringens [1]; Example 2, FIG. 2, lowest inclusion level of treatment) | Clostridium perfringens counts in jejunum (Clostridium perfringens [3]; [7]) | Clostridium perfringens counts in jejunum (Clostridium perfringens [3]; Non-challenged broilers) | Clostridium perfringens counts in jejunum (Clostridium perfringens [3]; [8]) | Effect on Clostridium counts in jejunum (in words) (Clostridium perfringens [3]; broilers, versus dodecanoic acid) | Diarrhoea score [4] | Effect on diarrhoea (in words) ([4]; versus control) | Level recovered in the jejunum [5] | Inhibition of growth of Clostridium perfringens (OD) (Clostridium perfringens [1]; Example 2, FIG. 2, at 67 ppm)
1 | CCCCCCCC(=O)OC [methyl octanoate] | nearly the same results |  |  |  |  |  |  |  |  |  |  |  |  | 
2 | CCCCCCCCCCCC(=O)OCC [ethyl dodecanoate] | complete inhibition | 1.626 | 106.5 | 4.621 | 65.5 | complete inhibition | 0.977 | 1.048 | 1.013 | overall significant reduction | 42.41 b | significantly reduce diarrhoea | higher than the free fatty acid | 
3 | CCCCCCCCCCCC(=O)O [dodecanoic acid, reference compound] |  | 1.636 | 104.3 | 8.333 | 63.78 |  | 2.122 | 1.418 | 1.770 |  | 46.64 ab |  |  | not as effective
